From ChEMBL document CHEMBL1135216, “New 2-(1-adamantylcarbonyl)pyridine and 1-acetyladamantane thiosemicarbazones-thiocarbonohydrazones: cell growth inhibitory, antiviral and antimicrobial activity evaluation” (Bioorg Med Chem Lett, 2002)
≈ marks a conversion by molar mass, not a printed value.

What was measured:
CCRF-CEM [1] = assay: Tested for the inhibitory concentration against cell growth of human leukemic cell line CCRF-CEM; assay type: functional
CCRF-CEM [2] = assay: Tested for the concentration required to reduce the viability of leukemia cells by 50% against cell growth of T cell leukemia cell line CCRF-CEM using MTT assay; assay type: functional; conditions: Homo sapiens, read-out: LC50 (the source's name)
CCRF-CEM [3] = assay: Tested for the inhibitory concentration against cell growth of Tcell leukemic cell line CCRF-CEM using MTT assay; assay type: functional; conditions: Homo sapiens
E6SM [4] = assay: Tested for antiviral activity against VSV-virus in human embryonic skin muscle fibroblasts; assay type: functional; conditions: Muscle tissue
E6SM [5] = assay: Tested for antiviral activity against herpes simplex virus type 1(KOS) in E6SM cell line(human embryonic skin-muscle fibroblasts); assay type: functional
E6SM [6] = assay: Tested for antiviral activity against vaccinia virus in human embryonic skin muscle fibroblast; assay type: functional; conditions: Muscle tissue
HeLa [7] = assay: The compound was tested for antiviral activity against VSV-virus in human epithelial cells; assay type: functional
E6SM [8] = assay: Tested for cytotoxic activity in human embryonic skin muscle fibroblast (E6SM); assay type: functional; conditions: Muscle tissue
E6SM [9] = assay: Antiviral activity against thymidine kinase-deficient (TK-HSV-1)virus in E6SM cell line(human embryonic skin-muscle fibroblasts); assay type: functional
E6SM [10] = assay: Antiviral activity against thymidine kinase-deficient (TK-HSV-2G) virus in E6SM cell line(human embryonic skin-muscle fibroblasts); assay type: functional
Escherichia coli = assay: Tested for the antimicrobial activity against Escherichia coli ATCC 25922; assay type: functional
HEL [11] = assay: Tested for cytotoxic activity in human embryonic lung fibroblast (HEL); assay type: functional
HEL [12] = assay: Tested for antiviral activity against human cytomegalovirus (AD-169) in human embryonic lung fibroblasts; assay type: functional
HEL [13] = assay: Tested for antiviral activity against thymidine kinase deficient Varicella zoster virus in human embryonic lung fibroblasts; assay type: functional
HEL [14] = assay: (§1) Tested for antiviral activity against thymidine kinase wild type Varicella zoster virus in human embryonic lung fibroblast; assay type: functional
HeLa [15] = assay: Tested for antiviral activity against coxsackie-B4 virus in human epithelial cell line; assay type: functional
HL-60 [16] = assay: Tested for the inhibitory concentration against cell growth of human leukemic cell line HL60; assay type: functional
HL-60 [17] = assay: Tested for the concentration required to reduce the viability of leukemia cells by 50% against cell growth of HL60 acute myeloid leukemia using MTT assay; assay type: functional; conditions: Homo sapiens, read-out: LC50 (the source's name)
HL-60 [18] = assay: Tested for the inhibitory concentration against cell growth of HL60 acute myeloid leukemia using MTT assay; assay type: functional; conditions: Homo sapiens
HeLa [19] = assay: Tested for cytotoxic activity in human epithelial cell line (HeLa); assay type: functional
HuT78 [20] = assay: Tested for the inhibitory concentration against cell growth of human leukemic cell line HuT78; assay type: functional
HuT78 [21] = assay: Tested for the concentration required to reduce the viability of leukemia cells by 50% against cell growth of HuT78 T lymphoma using MTT assay; assay type: functional; conditions: Homo sapiens, read-out: LC50 (the source's name)
HuT78 [22] = assay: Tested for the inhibitory concentration against cell growth of HuT78 T lymphoma using MTT assay; assay type: functional; conditions: Homo sapiens
K562 [23] = assay: Tested for the concentration required to reduce the viability of leukemia cells by 50% against cell growth of K562 chronic myeloid leukemia using MTT assay; assay type: functional; conditions: Homo sapiens, read-out: LC50 (the source's name)
K562 [24] = assay: Tested for the inhibitory concentration against cell growth of K562 chronic myeloid leukemia using MTT assay; assay type: functional; conditions: Homo sapiens
K562 [25] = assay: Tested for the inhibitory concentration against cell growth of human leukemic cell line K562; assay type: functional
Klebsiella pneumoniae = assay: Tested for the antimicrobial activity against Klebsiella pneumoniae ATCC 13883; assay type: functional
MOLT-4 [26] = assay: Tested for the inhibitory concentration against cell growth of human leukemic cell line MOLT-4; assay type: functional
MT4 [27] = assay: (§2) Tested for effective concentration required to protect MT-4 cells against the cytopathicity of HIV-1(IIIB); assay type: functional; conditions: Homo sapiens, read-out: LC50 (the source's name)
MT4 [28] = assay: Tested for effective concentration required to protect MT-4 cells against the cytopathicity of HIV-2(ROD); assay type: functional, cell-based; conditions: Homo sapiens
MOLT-4 [29] = assay: Tested for the concentration required to reduce the viability of leukemia cells by 50% against cell growth of T cell leukemia cell line MOLT-4 using MTT assay; assay type: functional; conditions: Homo sapiens, read-out: LC50 (the source's name)
MOLT-4 [30] = assay: Tested for the inhibitory concentration against cell growth of Tcell leukemic cell line MOLT-4 using MTT assay; assay type: functional; conditions: Homo sapiens
MT4 [31] = assay: Tested for cytotoxic concentration required to reduce the viability of MT-4 cells by 50%; assay type: functional; conditions: Homo sapiens
RPMI-8226 [32] = assay: Tested for the inhibitory concentration against cell growth of human leukemic cell line RPMI8226; assay type: functional
RPMI-8226 [33] = assay: Tested for the concentration required to reduce the viability of leukemia cells by 50% against cell growth of RPMI8226 multiple myeloma using MTT assay; assay type: functional; conditions: Homo sapiens
RPMI-8226 [34] = assay: Tested for the inhibitory concentration against cell growth of […] multiple myeloma using MTT assay; assay type: functional; conditions: Homo sapiens
Staphylococcus aureus = assay: Tested for the antimicrobial activity against Staphylococcus aureus ATCC 6538; assay type: functional
[35] = tested on: Staphylococcus epidermidis; assay: Tested for the antimicrobial activity against Staphylococcus epidermidis ATCC 12228; assay type: functional
[36] = (§3) Tested for the antimicrobial activity against Staphylococcus hominis ATCC 27844; assay type: functional
Vero [37] = assay: Tested for cytotoxic activity in African green monkey kidney cells (Vero); assay type: functional; conditions: Chlorocebus sabaeus
Vero [38] = assay: Tested for antiviral activity against Punta toro virus in African green monkey kidney cell (Vero); assay type: functional; conditions: Chlorocebus sabaeus
Vero [39] = assay: Tested for antiviral activity against Reo-1 virus in African green monkey kidney cell (Vero); assay type: functional; conditions: Chlorocebus sabaeus
Vero [40] = assay: Tested for antiviral activity against Sindbis virus in African green monkey kidney cell (Vero); assay type: functional; conditions: Chlorocebus sabaeus
Vero [41] = assay: Tested for antiviral activity against coxsackie B-4 virus in African green monkey kidney cell (Vero); assay type: functional; conditions: Chlorocebus sabaeus
Vero [42] = assay: Tested for antiviral activity against parainfluenza virus in african green monkey kidney cell (Vero); assay type: functional; conditions: Chlorocebus sabaeus
E6SM [43] = assay: Tested for antiviral activity against thymidine kinase-deficient (TK-HSV-2G) virus in E6SM cell line(human embryonic skin-muscle fibroblasts); assay type: functional
E6SM [44] = assay: The compound was tested for antiviral activity against thymidine kinase-deficient (TK-HSV-1)virus in E6SM cell line(human embryonic skin-muscle fibroblasts); assay type: functional
E6SM [45] = assay: as §1; assay type: functional
Staphylococcus hominis = assay: as §3; assay type: functional
MT4 [46] = assay: as §2; assay type: functional, cell-based; conditions: Homo sapiens
[47] = read-out: LC50 (the source's name)

S=C(N/N=C(/c1ccccn1)C12CC3CC(CC(C3)C1)C2)NNC(=S)c1ccc(Cl)cc1
GI50 (CCRF-CEM [1]): 76 µM
CC50 (CCRF-CEM [2]): 100 µM
TGI (CCRF-CEM [3]): 100 µM
MIC (E6SM [4]): > 16 µg/mL
MIC (E6SM [5]): > 16 µg/mL
MIC (E6SM [6]): > 16 µg/mL
MIC (HeLa [7]): > 3.2 µg/mL
MCC (E6SM [8]): 80 µg/mL
MIC (E6SM [9]): > 16 µg/mL
MIC (E6SM [10]): > 16 µg/mL
MIC (Escherichia coli): > 2000 µg/mL
MCC (HEL [11]): 5 µg/mL
MIC (HEL [12]): > 5 µg/mL
MIC (HEL [13]): > 2 µg/mL
MIC (HEL [14]): > 2 µg/mL
MIC (HeLa [15]): > 3.2 µg/mL
GI50 (HL-60 [16]): 4.1 µM
CC50 (HL-60 [17]): 85.5 µM
TGI (HL-60 [18]): 9.5 µM
MCC (HeLa [19]): > 16 µg/mL
GI50 (HuT78 [20]): 8 µM
CC50 (HuT78 [21]): 100 µM
TGI (HuT78 [22]): 100 µM
CC50 (K562 [23]): 100 µM
TGI (K562 [24]): 100 µM
GI50 (K562 [25]): 100 µM
MIC (Klebsiella pneumoniae): > 2000 µg/mL
GI50 (MOLT-4 [26]): 100 µM
EC50 (MT4 [27]): > 3 µM
EC50 (MT4 [28]): > 3 µM
CC50 (MOLT-4 [29]): 100 µM
TGI (MOLT-4 [30]): 100 µM
CC50 (MT4 [31]): 2.8 µM
GI50 (RPMI-8226 [32]): 6.7 µM
CC50 (RPMI-8226 [33]; [47]): 100 µM
TGI (RPMI-8226 [34]): 68.3 µM
MIC (Staphylococcus aureus): 1000 µg/mL (≈ 2070 µM)
MIC [35]: 1000 µg/mL (≈ 2070 µM)
MIC [36]: 1000 µg/mL (≈ 2070 µM)
MCC (Vero [37]): 80 µg/mL
MIC (Vero [38]): > 16 µg/mL
MIC (Vero [39]): > 16 µg/mL
MIC (Vero [40]): > 16 µg/mL
MIC (Vero [41]): 9.6 µg/mL (≈ 19.8 µM)
MIC (Vero [42]): > 16 µg/mL

N/C(S)=N\N=C(\c1ccccn1)C12CC3CC(CC(C3)C1)C2
GI50 (CCRF-CEM [1]): 100 µM
CC50 (CCRF-CEM [2]): 100 µM
MIC (E6SM [4]): > 400 µg/mL
CC50 (E6SM [5]): > 400 µg/mL
MIC (E6SM [43]): > 400 µg/mL
MIC (E6SM [6]): > 400 µg/mL
MIC (HeLa [7]): > 400 µg/mL
CC50 (E6SM [44]): > 400 µg/mL
MCC (E6SM [8]): > 400 µg/mL
MIC (Escherichia coli): > 3180 µg/mL
MCC (HEL [11]): > 20 µg/mL
MIC (HEL [12]): > 5 µg/mL
MIC (HEL [13]): > 20 µg/mL
MIC (E6SM [45]): > 20 µg/mL
MIC (HeLa [15]): 240 µg/mL (≈ 763 µM)
GI50 (HL-60 [16]): 51.1 µM
CC50 (HL-60 [17]): 100 µM
TGI (HL-60 [18]): 100 µM
MCC (HeLa [19]): > 400 µg/mL
GI50 (HuT78 [20]): 2.4 µM
CC50 (HuT78 [21]): 100 µM
CC50 (K562 [23]): 100 µM
MIC (Klebsiella pneumoniae): > 3180 µg/mL
GI50 (MOLT-4 [26]): 6.4 µM
CC50 (MOLT-4 [29]): 100 µM
CC50 (MT4 [31]; [47]): > 400 µM
GI50 (RPMI-8226 [32]): 97.9 µM
CC50 (RPMI-8226 [33]): 100 µM
TGI (RPMI-8226 [34]): 100 µM
MIC (Staphylococcus aureus): > 3180 µg/mL
MIC [35]: > 3180 µg/mL
MIC (Staphylococcus hominis): > 3180 µg/mL
MCC (Vero [37]): 16 µg/mL
MIC (Vero [38]): > 3.2 µg/mL
MIC (Vero [39]): > 3.2 µg/mL
MIC (Vero [40]): > 3.2 µg/mL
MIC (Vero [41]): > 3.2 µg/mL
MIC (Vero [42]): > 3.2 µg/mL
EC50 (MT4 [46]): > 400 µM
